Data as given in patent publication US9845322B2 (Hoffmann-La Roche Inc., priority 2016, dated 2017).
Where two headings read alike, the source gives them in different places.

System: HBsAg secretion in HepG2.2.15 cells
Assay: HBsAg assay (chemiluminescence immunoassay of secreted HBsAg in culture supernatant)
Type: cell-based, HBV
Details: concentration at which HBsAg secretion was reduced by 50% compared to the no drug control, read-out: IC50 (HBsAg assay)
Procedure, shortened: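 IC50 taken from dose-response curves as the concentration halving secreted HBsAg relative to DMSO control. Measured by chemiluminescence immunoassay of culture supernatant from constitutively HBV-expressing HepG2.2.15 cells, seeded at 1.5×10^4/well in duplicate and exposed to three-fold serial compound dilutions at 1% final DMSO.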

[1] = Hepatitis B virus, HepG2.2.15, HepG2.2.15 cells

Q: For `COC(=O)CCCCOc1cc(N2CCc3nc(-c4ncccn4)ncc3C2C)cc(F)c1F` (centres unmarked) [Example 62, methyl 5-[2,3-difluoro-5-(5-methyl-2-pyrimidin-2-yl-7,8-dihydro-5H-pyrido[4,3-d]pyrimidin-6-yl)phenoxy]pentanoate], which IC50 [1] is on record?
A: The IC50 was 494 nM.

Q: `CC1c2cnc(-c3ncccn3)nc2CCN1c1cc(F)c(F)c(OCC(=O)O)c1` (centres unmarked) [Example 65, 2-[2,3-difluoro-5-(5-methyl-2-pyrimidin-2-yl-7,8-dihydro-5H-pyrido[4,3-d]pyrimidin-6-yl)phenoxy]acetic acid] was tested. Which IC50 [1] did it give?
A: Its IC50 is 16700 nM.

Q: With `CC1c2cnc(-c3ncccn3)nc2CCN1c1cc(F)c(F)c(OCC2(CO)CC2)c1` (centres unmarked) [Example 77, [1-[[2,3-difluoro-5-(5-methyl-2-pyrimidin-2-yl-7,8-dihydro-5H-pyrido[4,3-d]pyrimidin-6-yl)phenoxy]methyl]cyclopropyl]methanol] as the compound, how does the IC50 [1] read?
A: Its IC50 is 105 nM.

Q: Which IC50 [1] does the source give for `CC1c2cnc(-c3ccccn3)nc2CCN1c1cc(F)c(F)c(OCC(=O)N(C)C)c1` (centres unmarked) [Example 30, 2-[2,3-difluoro-5-[5-methyl-2-(2-pyridyl)-7,8-dihydro-5H-pyrido[4,3-d]pyrimidin-6-yl]phenoxy]-N,N-dimethyl-acetamide] here?
A: The IC50 was 96 nM.

Q: With `CC1c2cnc(-c3ncccn3)nc2CCN1c1cc(F)cc(N2CCNC(=O)C2)n1` (single isomer, unassigned; (-)) [Example 225, (−)-4-[4-fluoro-6-(5-methyl-2-pyrimidin-2-yl-7,8-dihydro-5H-pyrido[4,3-d]pyrimidin-6-yl)-2-pyridyl]piperazin-2-one] as the compound, how does the IC50 (HepG2.2.15 cells) read?
A: The IC50 was 13 nM.

Q: `COc1cc(N2CCc3nc(-c4ncccn4)ncc3C2C)cc(F)c1F` (centres unmarked) [Example 15, 6-(3,4-difluoro-5-methoxy-phenyl)-5-methyl-2-pyrimidin-2-yl-7,8-dihydro-5H-pyrido[4,3-d]pyrimidine] was tested. Which IC50 (HepG2.2.15 cells) did it give?
A: The IC50 was 15 nM.

Q: How did the IC50 [1] turn out when `CC1c2cnc(-c3ncccn3)nc2CCN1c1cc(F)c(F)c(OCCCNC(=O)CCCCl)c1` (centres unmarked) [Example 95, 4-chloro-N-[3-[2,3-difluoro-5-(5-methyl-2-pyrimidin-2-yl-7,8-dihydro-5H-pyrido[4,3-d]pyrimidin-6-yl)phenoxy]propyl]butanamide] was run?
A: Its IC50 is 724 nM.

Q: Which IC50 [1] does the source give for `CC1c2cnc(-c3ncccn3)nc2CCN1c1cc(OCC2CS(=O)(=O)C2)cc(F)n1` (centres unmarked) [Example 195, 3-[[2-fluoro-6-(5-methyl-2-pyrimidin-2-yl-7,8-dihydro-5H-pyrido[4,3-d]pyrimidin-6-yl)-4-pyridyl]oxymethyl]thietane 1,1-dioxide] here?
A: The IC50 was 55 nM.

Q: For `CC1c2cnc(-c3ncccn3)nc2CCN1c1cc(F)c(F)c(OCC2CN(C(=O)OC(C)(C)C)C2)c1` (centres unmarked) [Example 132, tert-butyl 3-[[2,3-difluoro-5-(5-methyl-2-pyrimidin-2-yl-7,8-dihydro-5H-pyrido[4,3-d]pyrimidin-6-yl)phenoxy]methyl]azetidine-1-carboxylate], which IC50 [1] is on record?
A: Its IC50 is 30 nM.

Q: How did the IC50 [1] turn out when `CC1c2cnc(-c3ccccn3)nc2CCN1c1cc(N2CCCCC2)cc(F)n1` (centres unmarked) [Example 218, 6-(6-fluoro-4-(piperidin-1-yl)pyridin-2-yl)-5-methyl-2-(pyridin-2-yl)-5,6,7,8-tetrahydropyrido[4,3-d]pyrimidine] was run?
A: The IC50 was 22 nM.

Q: How did the IC50 [1] turn out when `CC1c2cnc(-c3ncccn3)nc2CCN1c1cc(F)c(F)c(OCCCNC(=O)OC(C)(C)C)c1` (centres unmarked) [Example 90, tert-butyl N-[3-[2,3-difluoro-5-(5-methyl-2-pyrimidin-2-yl-7,8-dihydro-5H-pyrido[4,3-d]pyrimidin-6-yl)phenoxy]propyl]carbamate] was run?
A: Its IC50 is 22 nM.

Q: Which IC50 [1] does the source give for `COc1cc(F)cc(N2CCc3cc(-c4ncccn4)ncc3C2C)c1` (centres unmarked) [Example 135, 2-(3-fluoro-5-methoxy-phenyl)-1-methyl-6-pyrimidin-2-yl-3,4-dihydro-1H-2,7-naphthyridine] here?
A: The IC50 was 15 nM.

Q: `CC1c2cnc(-c3ncccn3)nc2CCN1c1cc(F)c(F)c(OCCCNS(=O)(=O)C2CC2)c1` (centres unmarked) [Example 93, N-[3-[2,3-difluoro-5-(5-methyl-2-pyrimidin-2-yl-7,8-dihydro-5H-pyrido[4,3-d]pyrimidin-6-yl)phenoxy]propyl]cyclopropanesulfonamide] was tested. Which IC50 [1] did it give?
A: The IC50 was 61 nM.

Q: With `COc1cc(N2CCc3nc(-c4ccccn4)ncc3C2CC(=O)O)cc(F)c1F` (centres unmarked) [Example 37, 2-[6-(3,4-difluoro-5-methoxy-phenyl)-2-(2-pyridyl)-7,8-dihydro-5H-pyrido[4,3-d]pyrimidin-5-yl]acetic acid] as the compound, how does the IC50 [1] read?
A: Its IC50 is 4860 nM.

Q: With `CC1c2cnc(-c3ncccn3)nc2CCN1c1cc(F)c(F)c(OCCC[S+](C)[O-])c1` (centres unmarked) [Example 106, 6-[3,4-difluoro-5-(3-methylsulfinylpropoxy)phenyl]-5-methyl-2-pyrimidin-2-yl-7,8-dihydro-5H-pyrido[4,3-d]pyrimidine] as the compound, how does the IC50 [1] read?
A: Its IC50 is 208 nM.

Q: `CC1c2cnc(-c3ccccn3)nc2CCN1c1cc(F)c(F)c(OCCCCO)c1` (centres unmarked) [Example 24, 4-[2,3-difluoro-5-[5-methyl-2-(2-pyridyl)-7,8-dihydro-5H-pyrido[4,3-d]pyrimidin-6-yl]phenoxy]butan-1-ol] was tested. Which IC50 [1] did it give?
A: The IC50 was 29 nM.

Q: For `COC(=O)C(CCOc1cc(N2CCc3nc(-c4ncccn4)ncc3C2C)cc(F)c1F)NC(=O)OC(C)(C)C` (centres unmarked) [Example 102, methyl 2-(tert-butoxycarbonylamino)-4-[2,3-difluoro-5-(5-methyl-2-pyrimidin-2-yl-7,8-dihydro-5H-pyrido[4,3-d]pyrimidin-6-yl)phenoxy]butanoate], which IC50 [1] is on record?
A: The IC50 was 249 nM.

Q: Which IC50 [1] does the source give for `CC1c2cnc(-c3ncccn3)nc2CCN1c1cc(OCCCC(=O)O)cc(F)n1` (single isomer, unassigned; (-)) [Example 184, (−)-4-[[2-fluoro-6-[5-methyl-2-pyrimidin-2-yl-7,8-dihydro-5H-pyrido[4,3-d]pyrimidin-6-yl]-4-pyridyl]oxy]butanoic acid] here?
A: Its IC50 is 182 nM.

Q: For `CC1c2cnc(-c3ccccn3)nc2CCN1c1cc(F)c(F)c(OCCCCCO)c1` (centres unmarked) [Example 25, 5-[2,3-difluoro-5-[5-methyl-2-(2-pyridyl)-7,8-dihydro-5H-pyrido[4,3-d]pyrimidin-6-yl]phenoxy]pentan-1-ol], which IC50 [1] is on record?
A: Its IC50 is 33 nM.

Q: How did the IC50 [1] turn out when `CC1c2cnc(-c3ncccn3)nc2CCN1c1cc(F)c(F)c(OCCCS(=O)(=O)O)c1` (centres unmarked) [Example 78, 3-[2,3-difluoro-5-(5-methyl-2-pyrimidin-2-yl-7,8-dihydro-5H-pyrido[4,3-d]pyrimidin-6-yl)phenoxy]propane-1-sulfonic acid] was run?
A: The IC50 was 976 nM.

Q: `CC(=O)N1CC(CCOc2cc(N3CCc4nc(-c5ncccn5)ncc4C3C)cc(F)c2F)C1` (centres unmarked) [Example 117, 1-[3-[2-[2,3-difluoro-5-(5-methyl-2-pyrimidin-2-yl-7,8-dihydro-5H-pyrido[4,3-d]pyrimidin-6-yl)phenoxy]ethyl]azetidin-1-yl]ethanone] was tested. Which IC50 [1] did it give?
A: The IC50 was 72 nM.

Q: With `CCCC1c2cnc(-c3ccccn3)nc2CCN1c1cc(F)c(F)c(OC)c1` (centres unmarked) [Example 12, 6-(3,4-difluoro-5-methoxy-phenyl)-5-propyl-2-(2-pyridyl)-7,8-dihydro-5H-pyrido[4,3-d]pyrimidine] as the compound, how does the IC50 (HepG2.2.15 cells) read?
A: The IC50 was 7490 nM.

Q: `COc1cc(N2CCc3nc(-c4ncccn4)ncc3C2C)cc(C(F)(F)F)c1` (centres unmarked) [Example 112, 6-[3-methoxy-5-(trifluoromethyl)phenyl]-5-methyl-2-pyrimidin-2-yl-7,8-dihydro-5H-pyrido[4,3-d]pyrimidine] was tested. Which IC50 [1] did it give?
A: Its IC50 is 84 nM.

Q: How did the IC50 [1] turn out when `CC1c2cnc(-c3ncccn3)nc2CCN1c1cc(F)cc(OC2CCOCC2)n1` (centres unmarked) [Example 173, 6-(4-fluoro-6-tetrahydropyran-4-yloxy-2-pyridyl)-5-methyl-2-pyrimidin-2-yl-7,8-dihydro-5H-pyrido[4,3-d]pyrimidine] was run?
A: Its IC50 is 132 nM.

Q: How did the IC50 [1] turn out when `COc1cc(F)c(Cl)c(N2CCc3nc(-c4ncccn4)ncc3C2C)c1Cl` (single isomer, unassigned; (+)) [Example 123, (+)-6-(2,6-dichloro-3-fluoro-5-methoxy-phenyl)-5-methyl-2-pyrimidin-2-yl-7,8-dihydro-5H-pyrido[4,3-d]pyrimidine] was run?
A: Its IC50 is 1140 nM.

Q: `CC1c2cnc(-c3ncccn3)nc2CCN1c1cc(O)c(F)c(F)c1` (single isomer, unassigned; (+)) [Example 46, (+)-2,3-difluoro-5-(5-methyl-2-pyrimidin-2-yl-7,8-dihydro-5H-pyrido[4,3-d]pyrimidin-6-yl)phenol] was tested. Which IC50 (HepG2.2.15 cells) did it give?
A: Its IC50 is 8170 nM.

Q: `COc1cc(F)nc(N2CCc3nc(-c4ccccn4)ncc3C2C)c1` (centres unmarked) [Example 153, 6-(6-fluoro-4-methoxy-2-pyridyl)-5-methyl-2-(2-pyridyl)-7,8-dihydro-5H-pyrido[4,3-d]pyrimidine] was tested. Which IC50 [1] did it give?
A: Its IC50 is 22 nM.

Q: For `CC1c2cnc(-c3ncccn3)nc2CCN1c1cc(F)c(F)c(OCCCCCCNC(=O)OC(C)(C)C)c1` (centres unmarked) [Example 58, tert-butyl N-[6-[2,3-difluoro-5-(5-methyl-2-pyrimidin-2-yl-7,8-dihydro-5H-pyrido[4,3-d]pyrimidin-6-yl)phenoxy]hexyl]carbamate], which IC50 [1] is on record?
A: Its IC50 is 193 nM.

Q: With `CC1c2cnc(-c3ncccn3)nc2CCN1c1cc(F)c(F)c(OCC2CS(=O)(=O)C2)c1` (centres unmarked) [Example 120, 3-[[2,3-difluoro-5-(5-methyl-2-pyrimidin-2-yl-7,8-dihydro-5H-pyrido[4,3-d]pyrimidin-6-yl)phenoxy]methyl]thietane 1,1-dioxide] as the compound, how does the IC50 [1] read?
A: Its IC50 is 96 nM.

Q: How did the IC50 (HepG2.2.15 cells) turn out when `CC1c2cnc(-c3ncccn3)nc2CCN1c1cc(F)c(F)c(OCC2CCCO2)c1` (centres unmarked) [Example 122, 6-[3,4-difluoro-5-(tetrahydrofuran-2-ylmethoxy)phenyl]-(5R/S)-methyl-2-pyrimidin-2-yl-7,8-dihydro-5H-pyrido[4,3-d]pyrimidine] was run?
A: The IC50 was 16 nM.

Q: `CNC(=O)CCCOc1cc(N2CCc3nc(-c4ncccn4)ncc3C2C)cc(F)c1F` (centres unmarked) [Example 53, 4-[2,3-difluoro-5-(5-methyl-2-pyrimidin-2-yl-7,8-dihydro-5H-pyrido[4,3-d]pyrimidin-6-yl)phenoxy]-N-methyl-butanamide] was tested. Which IC50 [1] did it give?
A: Its IC50 is 103 nM.

Q: How did the IC50 (HepG2.2.15 cells) turn out when `CC1c2cnc(-c3ncccn3)nc2CCN1c1cc(F)c(F)c(OCCCS(C)(=O)=O)c1` (single isomer, unassigned; (-)) [Example 49, (−)-6-[3,4-difluoro-5-(3-methylsulfonylpropoxy)phenyl]-5-methyl-2-pyrimidin-2-yl-7,8-dihydro-5H-pyrido[4,3-d]pyrimidine] was run?
A: The IC50 was 34 nM.
